Measurements: US20200060276A1, “THIAZOLE COMPOUND AND HERBICIDE” (OAT Agrio Co., Ltd., priority 2017, published 2020)

What was measured:
Format in all cases: in vivo
[1] = tested on: Echinochloa crus-galli (L.) P. Beauv. var. formosensis Ohwi; assay: Test for Herbicidal Effect in Flooding Treatment (#1), ECHDG; details: flooding treatment at seeding, dose 2 kg/ha, visual observation on day 21
How it was run: (§1)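 Sieved soil in cups was flooded and left 24 h before weed seeds were sown. Compounds in acetone, diluted with Tween 80-containing water, were dropped over the whole surface at 2 kg/ha. After 21 days in a glasshouse, growth inhibition was scored visually from 0 (<10%) to 5 (≥90% or complete withering).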

[2] = tested on: Echinochloa crus-galli (L.) P. Beauv. var. formosensis Ohwi; assay: Test for Herbicidal Effect in Flooding Treatment (#2), ECHDG at 2-2.5 leaf stage; details: flooding treatment at 2-2.5 leaf stage, dose 0.2 kg/ha, visual observation on day 21
How it was run: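 Flooded muddy soil was seeded with the weed, and at 2–2.5 leaf stage compound in acetone/Tween 80 water was dropped on the water surface at 0.2 kg/ha. Plants were kept in a glasshouse and scored visually on day 21 from 0 (<10% growth inhibition) to 5 (≥90% or complete withering).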

[3] = tested on: Scirpus juncoides; assay: Test for Herbicidal Effect in Flooding Treatment (#1), SCIJU; details: flooding treatment at seeding, dose 2 kg/ha, visual observation on day 21
How it was run: as §1

[4] = tested on: Cyperus microiria; assay: Test for Herbicidal Effect in Flooding Treatment (#1), CYMIC; details: flooding treatment at seeding, dose 2 kg/ha, visual observation on day 21
Method: (#1) Test for Herbicidal Effect in Flooding Treatment: Styrol cups each having an opening diameter of 8 cm (about 52 cm^2) were respectively filled with soil (45 ml) which had been passed through a sieve (2 mm). Water (about 115 ml) was mixed with the soil such that the soil was flooded. After the soil stood still for 24 hours, Monochoria vaginalis, Echinochloa crus-galli (L.) P. Beauv. var. formosensis Ohwi, Cyperus difformis (umbrella sedge), and Scirpus juncoides were seeded. Each of the compounds of the present invention was dissolved in acetone, and the obtained product was then diluted with water containing Tween 80®. Each of the resultant chemical solutions was dropped on the entire surface of an associated one of treatment sections, so that each section was treated with 1 ml of the respective chemical solution (a dose of 2 kg/ha). After the treatment, the plants were grown in a glasshouse. On day 21, a survey was conducted on the herbicidal activity by visual observation, and evaluation was made according to the following criteria. 0: Growth inhibition effect is less than 10%. 1: Growth inhibition effect is equal to or greater than 10%, and less than 30%. 2; Growth inhibition effect is equal to or greater than 30%, and less than 50%. 3: Growth inhibition effect equal to or greater than 50%, and less than 70%. 4: Growth inhibition effect is equal to or greater than 70%, and less than 90%. 5: Growth inhibition effect is equal to or greater than 90%, or complete withering is achieved. ECHDG=Echinochloa crus-galli (L.) P. Beauv. var. formosensis Ohwi, MONVA=Monochoria vaginalis, SCIJU=Scirpus juncoides, CYMIC=Cyperus microiria.

| Structure (SMILES) | ECHDG #1 herbicidal effect (growth inhibition grade) [1] | ECHDG (2-2.5L) #2 herbicidal effect (growth inhibition grade) [2] | SCIJU #1 herbicidal effect (growth inhibition grade) [3] | CYMIC #1 herbicidal effect (growth inhibition grade) [4] |
| --- | --- | --- | --- | --- |
| CC(C)Oc1cc(F)c(CS(=O)(=O)c2ncc(Cl)s2)c(F)c1 [Compound 1C-111] | 5 (Growth inhibition effect is equal to or greater than 90%, or complete withering is achieved) | 5 (Growth inhibition effect is equal to or greater than 90%, or complete withering is achieved) | 5 (Growth inhibition effect is equal to or greater than 90%, or complete withering is achieved) | 5 (Growth inhibition effect is equal to or greater than 90%, or complete withering is achieved) |
| COc1ccc(CS(=O)(=O)c2ncc(Cl)s2)cc1 [Compound 1C-87] | 5 (Growth inhibition effect is equal to or greater than 90%, or complete withering is achieved) | 1 (Growth inhibition effect is equal to or greater than 10%, and less than 30%) | 5 (Growth inhibition effect is equal to or greater than 90%, or complete withering is achieved) | 5 (Growth inhibition effect is equal to or greater than 90%, or complete withering is achieved) |
| CCOc1ccc(CS(=O)(=O)c2ncc(Cl)s2)cc1C [Compound 1C-97] | 5 (Growth inhibition effect is equal to or greater than 90%, or complete withering is achieved) | 3 (Growth inhibition effect equal to or greater than 50%, and less than 70%) | 5 (Growth inhibition effect is equal to or greater than 90%, or complete withering is achieved) | 5 (Growth inhibition effect is equal to or greater than 90%, or complete withering is achieved) |
| COc1ccc(CS(=O)(=O)c2ncc(Cl)s2)c(OC)c1 [Compound 1C-125] | 5 (Growth inhibition effect is equal to or greater than 90%, or complete withering is achieved) | 5 (Growth inhibition effect is equal to or greater than 90%, or complete withering is achieved) | 5 (Growth inhibition effect is equal to or greater than 90%, or complete withering is achieved) | 5 (Growth inhibition effect is equal to or greater than 90%, or complete withering is achieved) |
| CCOc1ccc(CS(=O)(=O)c2ncc(Cl)s2)cc1Cl [Compound 1C-96] | 5 (Growth inhibition effect is equal to or greater than 90%, or complete withering is achieved) | 4 (Growth inhibition effect is equal to or greater than 70%, and less than 90%) | 5 (Growth inhibition effect is equal to or greater than 90%, or complete withering is achieved) | 5 (Growth inhibition effect is equal to or greater than 90%, or complete withering is achieved) |
| CCOc1cc(F)ccc1CS(=O)(=O)c1ncc(Cl)s1 [Compound 1C-12] | 5 (Growth inhibition effect is equal to or greater than 90%, or complete withering is achieved) | 4 (Growth inhibition effect is equal to or greater than 70%, and less than 90%) | 5 (Growth inhibition effect is equal to or greater than 90%, or complete withering is achieved) | 5 (Growth inhibition effect is equal to or greater than 90%, or complete withering is achieved) |
| COc1ccc(F)c(CS(=O)(=O)c2ncc(Cl)s2)c1Cl [Compound 1C-72] | 5 (Growth inhibition effect is equal to or greater than 90%, or complete withering is achieved) | 5 (Growth inhibition effect is equal to or greater than 90%, or complete withering is achieved) | 5 (Growth inhibition effect is equal to or greater than 90%, or complete withering is achieved) | 5 (Growth inhibition effect is equal to or greater than 90%, or complete withering is achieved) |
| COCOc1cc(F)c(CS(=O)(=O)c2ncc(Cl)s2)c(F)c1 [Compound 1C-118] | 5 (Growth inhibition effect is equal to or greater than 90%, or complete withering is achieved) | 4 (Growth inhibition effect is equal to or greater than 70%, and less than 90%) | 5 (Growth inhibition effect is equal to or greater than 90%, or complete withering is achieved) | 5 (Growth inhibition effect is equal to or greater than 90%, or complete withering is achieved) |
| O=S(=O)(Cc1ccc(OC(F)F)cc1)c1ncc(Cl)s1 [Compound 1C-114] | 5 (Growth inhibition effect is equal to or greater than 90%, or complete withering is achieved) | 1 (Growth inhibition effect is equal to or greater than 10%, and less than 30%) | 5 (Growth inhibition effect is equal to or greater than 90%, or complete withering is achieved) | 5 (Growth inhibition effect is equal to or greater than 90%, or complete withering is achieved) |
| CCOc1cc(Cl)c(CS(=O)(=O)c2ncc(Cl)s2)cc1Cl [Compound 1C-102] | 5 (Growth inhibition effect is equal to or greater than 90%, or complete withering is achieved) | 4 (Growth inhibition effect is equal to or greater than 70%, and less than 90%) | 5 (Growth inhibition effect is equal to or greater than 90%, or complete withering is achieved) | 5 (Growth inhibition effect is equal to or greater than 90%, or complete withering is achieved) |
| COc1ccc(OC)c(CS(=O)(=O)c2ncc(Cl)s2)c1 [Compound 1C-126] | 5 (Growth inhibition effect is equal to or greater than 90%, or complete withering is achieved) | 3 (Growth inhibition effect equal to or greater than 50%, and less than 70%) | 5 (Growth inhibition effect is equal to or greater than 90%, or complete withering is achieved) | 5 (Growth inhibition effect is equal to or greater than 90%, or complete withering is achieved) |
| O=S(=O)(Cc1cccc(OC(F)F)c1)c1ncc(Cl)s1 [Compound 1C-84] | 5 (Growth inhibition effect is equal to or greater than 90%, or complete withering is achieved) | 3 (Growth inhibition effect equal to or greater than 50%, and less than 70%) | 5 (Growth inhibition effect is equal to or greater than 90%, or complete withering is achieved) | 5 (Growth inhibition effect is equal to or greater than 90%, or complete withering is achieved) |
| COc1cc(CS(=O)(=O)c2ncc(Cl)s2)ccc1C [Compound 1C-68] | 5 (Growth inhibition effect is equal to or greater than 90%, or complete withering is achieved) | 4 (Growth inhibition effect is equal to or greater than 70%, and less than 90%) | 5 (Growth inhibition effect is equal to or greater than 90%, or complete withering is achieved) | 5 (Growth inhibition effect is equal to or greater than 90%, or complete withering is achieved) |
| N#Cc1ccc(CS(=O)(=O)c2ncc(Cl)s2)cc1 [Compound 1C-172] | 5 (Growth inhibition effect is equal to or greater than 90%, or complete withering is achieved) | 2 (Growth inhibition effect is equal to or greater than 30%, and less than 50%) | 5 (Growth inhibition effect is equal to or greater than 90%, or complete withering is achieved) | 5 (Growth inhibition effect is equal to or greater than 90%, or complete withering is achieved) |
| COc1c(F)c(F)cc(CS(=O)(=O)c2ncc(Cl)s2)c1F [Compound 1C-74] | 5 (Growth inhibition effect is equal to or greater than 90%, or complete withering is achieved) | 3 (Growth inhibition effect equal to or greater than 50%, and less than 70%) | 5 (Growth inhibition effect is equal to or greater than 90%, or complete withering is achieved) | 5 (Growth inhibition effect is equal to or greater than 90%, or complete withering is achieved) |
